For the experiment, the system named is P388. The experiment is described as follows: Growth inhibition of mouse P388 cells. It counts as functional. Conditions: read-out: ED50 (the source's name).
For `C[C@]12Cc3nc4c(nc3C[C@@H]1CC[C@@H]1[C@@H]2CC[C@]2(C)C(=O)CC[C@@H]12)C[C@@]1(C)[C@@H](CC[C@@H]2[C@@H]1CC[C@]1(C)C(=O)CC[C@@H]21)C4`, the EC50 worked out at 120 µM. As for `C[C@]12Cc3nc4c(nc3C[C@@H]1CC[C@H]1[C@H]3CC=C(c5ccc(=O)oc5)[C@@]3(C)CC[C@@H]12)C[C@@]1(C)[C@@H](CC[C@H]2[C@H]3CC=C(c5ccc(=O)oc5)[C@@]3(C)CC[C@@H]21)C4`, the figure is 57 µM.

As to `C[C@@H]1[C@]2(O[C@H]3C=C4[C@@H]5CC[C@H]6Cc7nc8c(nc7C[C@]6(C)[C@H]5C[C@@H](O)[C@]4(C)[C@]31O)C[C@@H]1CC[C@H]3C4=CC[C@@H]5[C@H](C)[C@@]6(OC[C@]45C(=O)C[C@@H]3[C@@]1(C)C8)OC(C)(C)C[C@H]6O)O[C@](C)(CO)C[C@H]2O` [CEPHALOSTATIN 1], the EC50 was found to be 0.001 µM. Regarding `C[C@@H]1[C@]2(O[C@H]3C=C4[C@@H]5CC[C@H]6Cc7nc8c(nc7C[C@]6(C)[C@H]5C[C@@H](O)[C@]4(C)[C@]31O)C[C@@H]1CC[C@H]3C4=C[C@@H]5O[C@]6(O[C@](C)(CO)C[C@H]6O)[C@@H](C)[C@]5(O)[C@@]4(C)[C@H](O)C[C@@H]3[C@@]1(C)C8)O[C@](C)(CO)C[C@H]2O` [CEPHALOSTATIN 12], the EC50 came to 0.076 µM. For `C[C@]12Cc3nc4c(nc3C[C@@H]1CC[C@@H]1[C@@H]2CC[C@]2(C)C(OS(=O)(=O)C(F)(F)F)=CC[C@@H]12)C[C@@]1(C)[C@@H](CC[C@@H]2[C@@H]1CC[C@]1(C)C(OS(=O)(=O)C(F)(F)F)=CC[C@@H]21)C4` the value was 42 µM. For `C[C@]12Cc3nc4c(nc3C[C@@H]1CC[C@@H]1[C@@H]2[C@@H](O)C[C@]2(C)/C(=C/[C@@H]3CC(=O)C=CO3)CC[C@@H]12)C[C@@]1(C)[C@@H](CC[C@@H]2[C@@H]1[C@@H](O)C[C@]1(C)/C(=C/[C@H]3CC(=O)C=CO3)CC[C@@H]21)C4` the value was 25 µM; for `CC(=O)O[C@H]1CC[C@H]2[C@@H]3CC[C@H]4Cc5nc6c(nc5C[C@]4(C)[C@H]3CC[C@]12C)C[C@@H]1CC[C@@H]2[C@H](CC[C@]3(C)[C@@H](OC(C)=O)CC[C@@H]23)[C@@]1(C)C6`, 91 µM.
